Legend:
Female SD rats = experiment: Inhibitory effect of compound on sulprostone-induced bladder contraction; format: in vivo, rat; settings: sulprostone 0.3 mg/kg subcutaneously, urethane-anesthetized female SD rats; for Bladder Contraction Inhibition Rate (%) 15 Minutes: 15 minutes after test agent 1.0 mg/kg intravenously; for Bladder Contraction Inhibition Rate (%) 60 Minutes: 60 minutes after test agent 1.0 mg/kg intravenously
Procedure: Female SD rats were used. Under urethane anesthesia (1.25 g/kg, administered subcutaneously), a tracheal cannula (Size 8, HIBIKI) and a femoral vein cannula for administration (23 G needle-equipped PE50) were inserted thereinto. The bladder cannula (PE50) was inserted from the bladder apex. The bladder cannula was connected to a three-way stopcock, and then, one was connected to a pressure transducer and the other was connected to a syringe filled with saline. Saline was injected to the bladder at an injection rate of 3.6 mL/hour and the bladder contraction pressure was recorded at the time of injection with a recorder (RECTI-HORITZ-8K, NEC Corporation). After 10 minutes from stabilization of the bladder contraction pressure during urination, sulprostone was administered subcutaneously (0.3 mg/kg). Then, at the time point when the bladder contraction pressure became constant, a test agent was administered intravenously (1.0 mg/kg). An average bladder contraction pressure during the 10 minutes period before administration of sulprostone was taken as a baseline (0%). Further, an average bladder contraction pressure during the 10 minutes period before administration of the test agent was taken as a maximum bladder contraction pressure (100%). The average bladder contraction pressures were measured during 5 minutes before and after at 15 minutes and 60 minutes from administration of the test agent. The ratio of this measured value to the maximum bladder contraction pressure was calculated by the following equation and taken as an average bladder contraction rate after administration of the test agent: (Average Bladder Contraction Rate after Administration of Test Agent (%))=(Average Bladder Contraction Pressure after Administration of Test Agent)/(Maximum Bladder Contraction Pressure). In addition, the difference between the maximum bladder contraction rate (100%) and the average bladder contraction rate (%) after administration of the test agent was calculated by the following equation and taken as a bladder contraction inhibition rate of the test agent: (Bladder Contraction Inhibition Rate)=100%−(Average Bladder Contraction Rate after Administration of Test Agent (%)).

rat EP1 receptor = rat EP1 receptor (Rattus norvegicus (Rat), UniProt P70597); experiment: Test for confirmation of EP1 receptor antagonism: inhibition of the prostaglandin E2-induced increase in intracellular calcium concentration in rat EP1 receptor-expressing COS-1 cells; format: cell-based; settings: for IC50: prostaglandin E2 10 nM, rat EP1 receptor-expressing COS-1 cells
rat EP1 receptor, sequence (P70597 whole entry): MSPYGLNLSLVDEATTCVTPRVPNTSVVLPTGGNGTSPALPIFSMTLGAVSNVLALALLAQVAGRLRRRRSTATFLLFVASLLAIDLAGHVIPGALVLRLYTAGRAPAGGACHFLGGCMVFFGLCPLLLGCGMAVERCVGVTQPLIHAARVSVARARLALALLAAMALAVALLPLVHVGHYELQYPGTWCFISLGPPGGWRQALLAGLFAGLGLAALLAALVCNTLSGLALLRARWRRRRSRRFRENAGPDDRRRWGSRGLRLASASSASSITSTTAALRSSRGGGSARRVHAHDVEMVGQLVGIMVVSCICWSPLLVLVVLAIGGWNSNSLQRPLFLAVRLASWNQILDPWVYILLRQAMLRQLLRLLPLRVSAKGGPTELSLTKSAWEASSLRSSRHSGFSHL
Procedure: (1) Preparation of Rat EP1 Expression Vector
Using Rat Kidney BD Marathon-Ready cDNA (Nippon Becton Dickinson Company, Ltd.) as a template, a forward primer shown in SEQ ID NO. 1, and a reverse primer shown in SEQ ID NO. 2, a first run of PCR was carried out using KOD-Plus-Ver 2.0 (Toyobo Co., Ltd.). Further, using this amplification product as a template, a forward primer shown in SEQ ID NO. 3, and a reverse primer shown in SEQ ID NO. 4, a second run of PCR was carried out in the same manner. The amplification product obtained by the second run of PCR was incorporated into a vector (pcDNA3.1 D/V5-His-TOPO (registered trademark), Invitrogen Japan K. K.). By a conventional method, the vector containing this amplification product was introduced to E. coli (One Shot TOP10 Competent Cells, Invitrogen Corporation) to transform. This transformed E. coli was cultured in an LB agar medium for one day. After the culture, colonies were selected and cultured in an LB liquid medium containing 50 μg/mL of ampicillin. After the culture, the vector was purified using a QIAprep Spin Miniprep Kit (Qiagen K. K.). The base sequence of the insertion site of this vector (SEQ ID NO. 5) was compared with the rat EP1 base sequence (Ptger1) registered as an accession number NM_013100 in well-known database (NCBI), and as a result, they all matched except for a single base. Further, the amino acid sequence translated by the base sequence completely matched the amino acid sequence of the rat EP1 receptor registered as an NCBI accession number NP_037232. Therefore, it was confirmed that the cloned gene sequence was a base sequence of the rat EP1 receptor and the obtained amino acid sequence was that of the rat EP1 receptor. The pcDNA3.1 D/V5-His-TOPO (registered trademark) to which the nucleic acid shown in SEQ ID NO. 5 had been inserted was taken as a rat EP1-expressing vector.
(2) Preparation of Rat EP1 Receptor-Expressing Cells
COS-1 cells (Dainippon Sumitomo Pharma Co., Ltd.) were cultured until it reached confluence in an incubator at 37° C. under a 5% CO2 gas condition, using a D-MEM liquid medium (high glucose and L-glutamine contained, Invitrogen Corporation) to which a penicillin-streptomycin solution (Invitrogen Corporation, final concentration: 100 U/mL as benzylpenicillin; 100 μg/mL as streptomycin) as an antibiotic, MEM nonessential amino acids (Invitrogen Corporation, final Concentration: 0.1 mM), and fetal calf serum (Sanko Junyaku Co., Ltd., final concentration: 10%) were added.
The cells that had reached confluence were stripped with 0.05% trypsin/0.53 mM EDTA 4Na (Invitrogen Japan K. K.) and resuspended in the liquid medium. The resuspended cells were diluted and cultured in the liquid medium at a spread ratio from 1:4 to 1:8.
The cells that had reached confluence were stripped with 0.05% trypsin/0.53 mM EDTA.4Na, and resuspended in a D-MEM liquid medium (high glucose and L-glutamine contained, Invitrogen Corporation) to which an MEM nonessential amino acid (final concentration: 0.1 mM) and fetal calf serum (final concentration: 10%) were added. In each well of a Poly D-lysine-coated 96-well microplate (BD BioCoat (registered trademark), Nippon Becton Dickinson Company, Ltd.), this resuspended cell suspension culture was prepared to be 5×10^4 cells/well in 100 μL of the liquid medium, and seeded thereon. After seeding, the cells were cultured in an incubator at 37° C. under a 5% CO2 gas condition. At a point when the cells for introduction of a rat EP1-expressing vector were adhered (about 2 hours after seeding), introduction of the rat EP1-expressing vector was carried out in the following order.
For introduction of the rat EP1-expressing vector, Lipofectamine 2000 (Invitrogen Japan K. K.) was used. […]

[1] = Method A: Fluo-4 NW Calcium Assay Kit, FlexStation
[2] = Method B: Calcium kit II Fluo 4, FDSS 7000

Molecule	IC50 (rat EP1 receptor; [1]) [nM]	IC50 (rat EP1 receptor; [2]) [nM]	other results
COc1cc2cc(-c3ccccc3)n(Cc3cccc(C(=O)O)n3)c2cc1F [Example 16-15]			Bladder Contraction Inhibition Rate (%) 15 Minutes (Female SD rats): 85.0%; Bladder Contraction Inhibition Rate (%) 60 Minutes (Female SD rats): 54.9%
COc1ccc2c(c1)cc(-c1ccccc1)n2Cc1cccc(C(=O)O)n1 [Example 9-21, 6-(5-methoxy-2-phenylindol-1-ylmethyl)pyridine-2-carboxylic acid]	13		Bladder Contraction Inhibition Rate (%) 15 Minutes (Female SD rats): 94.5%; Bladder Contraction Inhibition Rate (%) 60 Minutes (Female SD rats): 82.8%
COc1ccc2c(c1)cc(-c1ccsc1)n2Cc1cccc(C(=O)O)c1 [Example 9-25, 3-(5-methoxy-2-thiophen-3-ylindol-1-ylmethyl)benzoic acid]	35		
3-(5-methyl-2-phenylindol-1-yl)carboxylic acid [Comparative Example 1, reference compound]	> 10000		EP1 receptor antagonism (in words) (rat EP1 receptor; as shown in Table 49): do not exhibit EP1 receptor antagonism
COc1ccc2c(c1)cc(-c1ccsc1)n2Cc1cccc(C(=O)O)n1 [Example 9-35, 6-(5-methoxy-2-thiophen-3-ylindol-1-ylmethyl)pyridine-2-carboxylic acid]	23		
COc1ccc2c(c1)cc(C(C)C)n2Cc1cccc(C(=O)O)c1 [Example 9-15, 3-(2-isopropyl-5-methoxyindol-1-ylmethyl)benzoic acid]	22		
Cc1ccc2c(c1)cc(-c1ccccc1)n2Cc1cccc(C(=O)O)c1 [Example 9-13, 3-(5-methyl-2-phenylindol-1-ylmethyl)benzoic acid]	89		

More lines, main results first:

IC50 (rat EP1 receptor; [1]) [nM]	IC50 (rat EP1 receptor; [2]) [nM]	Molecule	other results
	27	COc1cc2cc(-c3ccoc3)n(Cc3cccc(C(=O)O)n3)c2cc1Cl [Example 25-37, 6-(6-chloro-2-furan-3-yl-5-methoxyindol-1-ylmethyl)pyridine-2-carboxylic acid]	
	35	COc1cc2cc(-c3ccccc3)n(Cc3ccc(C(=O)O)o3)c2cc1C [Example 25-36, 5-[5-methoxy-6-methyl-2-phenylindol-1-ylmethyl]furan-2-carboxylic acid]	
	33	COc1cc2cc(-c3ccc(F)cc3)n(Cc3cccc(C(=O)O)n3)c2cc1F [Example 25-31, 6-[6-fluoro-2-(4-fluorophenyl)-5-methoxyindol-1-ylmethyl]pyridine-2-carboxylic acid]	
	55	COc1ccc2c(c1)cc(-c1ccccc1)n2Cc1csc(C(=O)O)n1 [Example 25-12]	
	26	COc1cc2cc(-c3cccc(F)c3)n(Cc3cccc(C(=O)O)n3)c2cc1F [Example 25-29, 6-[6-fluoro-2-(3-fluorophenyl)-5-methoxyindol-1-ylmethyl]pyridine-2-carboxylic acid]	
	58	COc1cc2cc(-c3cccnc3)n(Cc3cccc(C(=O)O)n3)c2cc1F [Example 25-33, 6-(6-fluoro-5-methoxy-2-pyridin-3-ylindol-1-ylmethyl)pyridine-2-carboxylic acid]	
	51	CCC(C)c1cc2cc(OC)c(Cl)cc2n1Cc1cccc(C(=O)O)n1 (stereo not shown) [Example 25-44, 6-[6-chloro-5-methoxy-2-(1-methylpropyl)indol-1-ylmethyl]pyridine-2-carboxylic acid]	
	67	COc1cc2cc(-c3ccccc3)n(Cc3cccc(C(=O)O)n3)c2cc1Cl [Example 25-9, 6-(6-chloro-5-methoxy-2-phenylindol-1-ylmethyl)pyridine-2-carboxylic acid]	

Source: patent publication US8680120B2, “Indole derivative or pharmaceutically acceptable salt thereof” (Kissei Pharmaceutical Co., Ltd., priority 2009, dated 2014)
